Test results taken from patent US8507460B2, “Substituted 3′,5′-cyclic phosphates of purine nucleotide compounds and pharmaceutical compositions for the treatment of viral infections” (priority 2011, dated 2013).

Tests used:
[1] = Plasma and liver pharmacokinetics following a single oral dose in monkeys (Example 6); type: in vivo; settings: cynomolgus monkey, plasma, Cynomolgus monkeys, single oral dose (mg/kg per Table 6: 1a 10, A 25, B 10, C 10, D 50)
Description: […] Untreated animals were used for the collection of control liver. Plasma samples were collected at 1, 2, 4, 6, 8, 12 and 24 hours for all compounds and additionally at 0.5 hour (Compounds 1a, B and D), 3 and 10 hours (Compound C), and 32 and 48 hours post dose for Compound A. Terminal liver samples were collected from three animals per time point at 6, 12 and 24 hours post dose for all compounds and additionally at 2 hours (Compounds 1a, B and D), 3 hours (Compound C) and 32 and 48 hours post dose for Compound A. Liver specimens were collected from all animals immediately after the incision. Freezing forceps stored in liquid nitrogen were used to freeze the liver before excision.
Plasma samples were analyzed for the prodrug and 2′-methylguanosine (2′-MeG) or relevant nucleoside by LC-MS/MS. For protein precipitation and extraction, each plasma sample (50 μL) was treated with 500 μL of 0.2% formic acid in acetonitrile and 20 μL of an appropriate internal standard working solution. After vortexing and centrifugation, 500 μL of the sample extracts were transferred to a new plate, dried under N2 at ˜28° C. and reconstituted with 75 μL of 0.2% FA in water. The extracts were chromatographed on an Aquasil C18 column using a gradient system of 0.2% formic acid in water and acetonitrile. The analytes were detected and quantified by tandem mass spectrometry in positive ion mode on an MDS Sciex API5000 or an API4000 equipped with a Turbo Ionspray® interface. The calibration range was 0.500 (LLOQ) to 200 ng/mL in mouse plasma. The corresponding range for molar units is 1.68 to 673 pmol/mL.
Liver samples were analyzed for the active species 2′-methylguanosine triphosphate (2′-MeGTP) or relevant nucleoside triphosphate by LC-MS/MS. The triphosphate levels were assayed by homogenizing (on ice) a known weight of mouse liver with 4× volume of 0.95 M trichloroacetic acid (TCA). Appropriate internal standard solution was added to the homogenate followed by neutralization with 20% ammonium hydroxide solution and addition of 500 μL 1% formic acid. The tissue samples were extracted by weak anion exchange solid phase extraction (SPE). Post extraction, the eluates were evaporated under nitrogen, followed by reconstitution before injection onto the LC-MS/MS system. The samples were chromatographed on a Luna NH2 column using a gradient system of ammonium acetate (1 mM to 20 mM and pH 8.0 to pH 10.0) in water and acetonitrile (70:30). The analyte was detected and quantified by tandem mass spectrometry in positive ion mode on an API4000 equipped with a Turbo Ionspray® interface. The calibration range was 10 to 10000 pmol/mL in mouse liver homogenate (50 to 50000 pmol/g of mouse liver).

[2] = Stability in simulated gastric and intestinal fluids; type: in vitro ADME; settings: 100 μM, 2 hours at 37° C., percent of peak area at time zero
Description: Simulated gastric and intestinal fluids containing pepsin and pancreatin respectively were prepared according to the U.S. Pharmacopoeia USP291 procedure (www.pharmacopeia.cn/v29240/usp29nf24s0_ris1s126.html). Test compound (final concentration 100 μM) was incubated in duplicate in the appropriate fluid for 2 hours at 37° C. The samples were quenched with 200 μl cold acetonitrile, vortexed for 30 seconds and then centrifuged at 16,100 g for 10 min. The supernatants were analyzed by HPLC on a C-18 column with UV detection at 252 nm. The time 0 samples were prepared by adding SGF or SIF fluid to the quenching solvent followed by the test compound. Stability of the compound was determined by peak area the test compound after incubation and calculated as percent of the peak area observed at time zero.

[3] = Cytotoxicity evaluation, CellTiter-Blue Cell Viability Assay; type: cell-based; settings: human, Zluc cells, read-out: HCV Replicon CC50
Description: For cytotoxicity evaluation, Zluc cells were treated with compound as described above, and cell viability was monitored using the CellTiter-Blue Cell Viability Assay (Promega) by adding 20 μL of the assay solution to each well. The plates were then incubated at 37° C./5% CO2 for at least 3 hours.

HCV genotype 1b replicon = test: HCV Replicon Assay (Zluc luciferase reporter); type: cell-based
Description: Huh-7-derived cell line (Zluc) that harbors an HCV genotype 1b replicon and a luciferase reporter gene was grown in Dulbecco's Modified Eagle Medium (DMEM) supplemented with 10% fetal bovine serum, 2 mM GlutaMAX, 1% MEM nonessential amino acids, 100 IU/mL penicillin, 100 μg/mL streptomycin, and 0.5 mg/mL Geneticin® (G418). For dose response testing the cells were seeded in 96-well plates at 7.5×10^3 cells per well in a volume of […], and incubated at 37° C./5% CO2. Drug solutions were made up freshly in Huh-7 media as 2× stocks. […] 5-fold dilutions were prepared from these stocks in DMEM without G418. At least three hours after Zluc cells were seeded, drug treatment was initiated by adding 50 μL of drug dilutions to the plates in duplicate. Final concentrations of drug ranged from 100 μM to 0.0000512 μM. Cells were then incubated at 37° C./5% CO2. Alternatively, compounds were tested at two concentrations (1 μM and 10 μM). […] After 72 hours of incubation, the inhibition of HCV replication was measured by quantification of photons emitted after mono-oxygenation of 5′-fluoroluciferin to oxyfluoroluciferin by firefly luciferase. For this, media was removed from the plates via gentle tapping. Fifty microliters of ONE-glo luciferase assay reagent was added to each well. The plates were shaken gently for 3 min at room temperature and luminescence was measured on a Victor^3 V 1420 multilabel counter (Perkin Elmer) with a 1 second read time using a 700 nm cut-off filter. The EC50 values were calculated from dose response curves from the resulting best-fit equations determined by Microsoft Excel and XLfit 4.1 software. When screening at two fixed concentrations, the results were expressed as % inhibition at 1 μM and 10 μM.

Stability in mouse blood = type: in vitro ADME; settings: mouse whole blood, on ice, percent unchanged
Description: Stability of test compounds were determined in fresh human whole blood with K2EDTA as the anticoagulant (stored refrigerated at 2-8° C. and used within 7 days of receipt). The experiment was conducted with three replicates for each time point. Whole blood, pre-incubated at 37° C. for 10-15 minutes, was fortified with a solution of test compound for a final concentration of 0.5 μM and mixed for 30 sec. At intervals (0, 0.5, 1 and 2 hr), three […] aliquots were combined with 200 μL (each) of an ice-cold solution of the internal standard (carbutamide 500 ng/mL in acetonitrile). The samples were vortexed for 30 sec and then centrifuged at 16,100 g for 5 min. The supernatant was analyzed by LC-MS/MS. The MS peak area ratio of the test compound versus the internal standard was calculated and percent unchanged test compound was calculated for each time point using this ratio.
The stability in mouse blood was determined on ice at 0, 0.5 and 1 hr as above.

CCOc1nc(N)nc2c1ncn2[C@@H]1O[C@@H]2COP(=O)(OC(C)C)O[C@H]2[C@@]1(C)O (single isomer, unassigned) [Compound 1a]
AUC(0-t) ([1]; normalized to 1 μmol/kg dose, read-out: Plasma prodrug AUC0-24): 0.15 µM·h
Cmax ([1]; normalized to 1 μmol/kg dose, read-out: Plasma prodrug Cmax): 22 nM
Tmax ([1]; read-out: Plasma prodrug Tmax): 2 h
Stability SGF ([2]; simulated gastric fluid with pepsin): 99%
Stability SIF ([2]; simulated intestinal fluid with pancreatin): 99%
CC50 at 72 h [3]: > 50 µM
selectivity index (HCV genotype 1b replicon; HCV replicon assay, Zluc cells): greater than 100
EC50 (HCV genotype 1b replicon; Zluc cells (Huh-7-derived, HCV genotype 1b replicon, luciferase reporter), 72 hours): ≤ 0.25 µM
Stability WB_Mouse (ice; 1 hr) (Stability in mouse blood): 94%
